One may read the IC50 as the midpoint of a concentration-inhibition curve.

Experiment [1] addresses T1, recombinant human STIM1 and Orai1 (HEK-293 stable cells; JR251) (Homo sapiens, UniProt Q96D31).
T1 construct: c-myc (C); expressed in transfected cells
Put plainly: Fluorescence-based assay of store-operated calcium entry in Orai1/STIM1 stable cells. To be noted: 50% inhibition of Peak-Basal signal. It counts as cell-based. As to the method:
A. Fluorescence-Based Assay of Store-Operated Calcium Entry in Orai1/STIM1 Stable Cells.
Cells stably expressing recombinant human STIM1 and Orai1 were generated by transfecting a human Orai1 expression plasmid (pcDNA3.1-Orai1-cmyc) into HEK-293 cells stably overexpressing human STIM1 (Roos et al. 2005 JCB 169(3): 435-445). Colonies of cells stably expressing both STIM1 and Orai1 proteins were selected and then subcloned by limiting dilution. Cells were cultured at 37° C./6% CO2 in complete medium with 10% FBS and appropriate selection markers.
The day prior to performing the assay Orai1/STIM1 stable cells were plated in 50 μL of complete medium at 90-95% confluence in a 384 well plate. Cells were grown at 37° C./6% CO2 overnight. On the day of the assay, 1.5 μM fluo-4-AM (Invitrogen) in complete medium was added to the cells, which were then incubated for 1 hour at RT. Cells were washed once in Ca^2+-free HBSS (Hank's buffered saline solution) and 35 μl of Ca^2+-free HBSS was added to each well. Test compounds were added to wells in a 10 μL Ca^2+-free HBSS solution, prepared at 4.5× the desired final concentration, and incubated for 30 minutes at RT. The initial baseline fluorescence signal was then measured with a FLIPR^384 (Molecular Devices) plate reader. Calcium entry was initiated by adding 5 μl of 10×CaCl2 (10 mM) in HBSS, and changes in cellular fluorescence were measured with the FLIPR^384 plate reader. In each well, the magnitude of the fluorescence signal as a result of calcium entry into the cell was determined by calculating the difference between the peak fluorescence signal measured after calcium addition and the initial baseline fluorescence signal (designated Peak-Basal). IC50 values were typically calculated as the concentration that inhibited 50% of the Peak-Basal signal (Table A).

A further experiment concerns RBL-2H3 cells. Briefly: Fluorescence-based assay of store-operated calcium entry in RBL-2H3 cells. It counts as cell-based. To be noted: Rattus norvegicus, 50% inhibition of Upslope, thapsigargin. As to the method: B. Fluorescence-Based Assay of Store-Operated Calcium Entry in RBL-2H3Cells.
RBL-2H3 cells were obtained from ATCC and maintained in complete medium with 10% FBS at 37° C./6% CO2.
The day prior to performing the assay, RBL-2H3 cells are plated in 50 μL of complete medium in a 384 well plate. Cells are grown at 37° C./6% CO2 overnight and grow to 50-60% confluence by the next day. On the assay day, 1.5 μM Fluo-4-AM dye (Invitrogen) in complete medium is added and incubated for 1 hour at RT. Cells are washed twice in Ca^2+-free HBSS buffer and 35 μL Ca^2+-free HBSS buffer is added to each well. 10 μL of a test compound prepared in a Ca^2+-free HBSS solution at 4.5× of the desired concentration is added to a well and incubated for 5 minutes at RT. 10 μL of thapsigargin prepared in a Ca^2+-free HBSS solution at 5.5× of the desired concentration (5.5 uM) is added to each well and incubated for an additional 25 minutes. The initial baseline fluorescence signal is measured with a FLIPR^384 (Molecular Devices) plate reader. 5 μL of 12× calcium in HBSS (12 mM) is added and changes in cellular fluorescence are measured with the FLIPR^384 plate reader. In each well, the change in the fluorescent signal as a function of time due to calcium entry into the cell is determined by calculating the difference between the fluorescent signal measured 7 seconds after calcium addition and the initial baseline fluorescence signal at time zero (t=0). This parameter is designated Upslope. The IC50 value is calculated as the concentration at which 50% of the Upslope is inhibited.

A further experiment relates to Jurkat cells. To be noted: cited from earlier work.
Experiment [2] has as its target STIM1 and Orai1 in HEK293 cells (Homo sapiens, UniProt Q96D31). The following applies: STIM1 and Orai1 co-expression; cited from earlier work.

T1 sequence (Q96D31 whole entry): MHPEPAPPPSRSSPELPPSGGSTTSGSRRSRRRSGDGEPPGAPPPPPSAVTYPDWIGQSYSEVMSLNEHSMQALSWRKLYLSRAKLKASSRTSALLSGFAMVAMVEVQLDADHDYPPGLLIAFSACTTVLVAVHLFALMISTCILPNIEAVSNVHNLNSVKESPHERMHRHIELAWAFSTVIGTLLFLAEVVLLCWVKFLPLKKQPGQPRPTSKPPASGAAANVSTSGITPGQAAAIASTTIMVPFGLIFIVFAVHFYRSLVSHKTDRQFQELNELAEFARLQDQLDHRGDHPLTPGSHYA
Chain of STIM1 and Orai1 in HEK293 cells (Q96D31 whole entry): as above

Consider `O=C(Nc1scc(-c2ccc(Cl)cc2)c1C(=O)O)c1cc2nccnc2s1` [X], for which the IC50 (in experiment [1]; in the experiment with RBL-2H3 cells) was not above 0.5 µM in each case.

In the case of `O=C(Nc1scc(-c2ccc(Br)cc2)c1C(=O)O)c1nc2c(F)cccc2o1` [C], the IC50 (in experiment [1]; in the experiment on RBL-2H3 cells) was not above 0.5 µM in each case.

`COc1c(F)c(F)cc(C(=O)Nc2scc(-c3ccc(Br)cc3)c2C(=O)O)c1F` [L]: the IC50 in experiment [1] was not above 0.5 µM.

With `O=C(CCc1cccs1)Nc1scc(-c2ccc(Cl)cc2)c1C(=O)O` [R], the half-maximal inhibitory concentration (IC50) (in experiment [1]; in the experiment with RBL-2H3 cells) was not above 0.5 µM in each case.

For the compound `Cc1nnsc1C(=O)Nc1ccc(-n2nc(C(F)(F)F)cc2C(F)(F)F)cc1` [BTP-2], in the experiment with Jurkat cells, the “inhibition of SOCE” value is given as “inhibits” and the inhibition of proliferation entry is “inhibits”.

As for `COc1cc(C)c(-c2csc(NC(=O)c3cc4ccccc4o3)c2C(=O)O)cc1C` [H], the IC50 (in experiment [1]; in the experiment with RBL-2H3 cells) was not above 0.5 µM throughout.

Turning to `O=C(Nc1scc(-c2ccc(Cl)cc2)c1C(=O)O)c1ccc(C(F)(F)F)nc1` [M], the IC50 in experiment [1] lay within 1 to 10 µM.

As for `O=C(Nc1scc(-c2ccc(Br)cc2)c1C(=O)O)c1ccc(C(F)(F)F)nc1` [AA], the half-inhibitory concentration (IC50) in experiment [1] is 1 to 10 µM.

With `O=C(O)c1c(-c2ccc(Cl)cc2)csc1NC(=O)C(Cl)Cc1ccccc1` (stereo not shown) [D], the IC50 (in experiment [1]; in the experiment on RBL-2H3 cells) was not above 0.5 µM throughout.

`Cc1ccc(-c2csc(NC(=O)c3cnc4ccccc4n3)c2C(=O)O)c(F)c1F` [F]: the IC50 (in experiment [1]; with RBL-2H3 cells) was not above 0.5 µM throughout.

As for `O=C(Nc1scc(-c2ccc(Cl)cc2)c1C(=O)O)c1nc2ccccc2s1` [G], the half-maximal inhibitory concentration (IC50) (in experiment [1]; with RBL-2H3 cells) was not above 0.5 µM in each case.

As to `O=C(Nc1scc(-c2ccc(Cl)cc2)c1C(=O)O)c1nc(C2CC2)cs1` [W], the IC50 (in experiment [1]; with RBL-2H3 cells) was not above 0.5 µM in each case.

In the case of `O=C(Nc1scc(-c2ccc(Br)cc2)c1C(=O)O)c1nc2cccc(F)c2o1` [B], the half-maximal inhibitory concentration (IC50) (in experiment [1]; with RBL-2H3 cells) was not above 0.5 µM in each case.

Turning to `NCCOB(c1ccccc1)c1ccccc1` [2-aminoethoxydiphenylborate], the “block of store-dependent Ca2+ entry” value in experiment [2] is given as “completely blocked”.

For `CC(Cc1ccccc1)C(=O)Nc1scc(-c2ccc(Br)cc2)c1C(=O)O` (stereo not shown) [E], the half-maximal inhibitory concentration (IC50) (in experiment [1]; in the experiment on RBL-2H3 cells) was not above 0.5 µM throughout.

Turning to `O=C(O)c1c(-c2ccc(Cl)cc2)csc1NC(=O)C1CCc2ccccc2C1` (stereo not shown) [K], the IC50 (in experiment [1]; in the experiment on RBL-2H3 cells) was not above 0.5 µM each time.

On to `O=C(Nc1scc(-c2ccc(Br)cc2)c1C(=O)O)c1cn2ccccc2n1` [Z], for which the IC50 in experiment [1] lay in the range of 1 to 10 µM.

On to `O=C(Nc1scc(-c2ccc(Br)cc2)c1C(=O)O)c1cc2ccccn2n1` [Compound I], for which the half-inhibitory concentration (IC50) (in experiment [1]; in the experiment on RBL-2H3 cells) was not above 0.5 µM throughout.

With `O=C(Nc1scc(-c2cc3cccc(O)c3o2)c1C(=O)O)c1cc2cccc(O)c2o1` [AB], the half-maximal inhibitory concentration (IC50) in experiment [1] was 1 to 10 µM; in the experiment on RBL-2H3 cells, not above 0.5 µM.

For the compound `O=C(Nc1scc(-c2ccc(Cl)cc2)c1C(=O)O)c1cc2sccc2s1` [J], the IC50 (in experiment [1]; in the experiment on RBL-2H3 cells) was not above 0.5 µM throughout.

`Cc1nnsc1C(=O)Nc1scc(-c2ccc(Br)cc2)c1C(=O)O` [A]: the IC50 (in experiment [1]; with RBL-2H3 cells) was 1 to 10 µM throughout.

As to `O=C(Nc1scc(-c2ccc(Cl)cc2)c1C(=O)O)c1ccc([N+](=O)[O-])o1` [V], the IC50 (in experiment [1]; in the experiment with RBL-2H3 cells) was not above 0.5 µM each time.

With `O=C(Nc1scc(-c2ccc(Cl)cc2)c1C(=O)O)c1cc2ccccn2n1` [O], the IC50 (in experiment [1]; with RBL-2H3 cells) was not above 0.5 µM each time.

Consider `O=C(Nc1scc(-c2ccc(Cl)cc2)c1C(=O)O)c1cnc2ccccc2n1` [P], for which the IC50 (in experiment [1]; with RBL-2H3 cells) was not above 0.5 µM each time.

As to `O=C(Nc1scc(-c2ccc(Cl)cc2)c1C(=O)O)c1cc2ccccc2nn1` [Y], in experiment [1], the 50% inhibitory concentration (IC50) was 1 to 10 µM.

With `O=C(Nc1scc(-c2ccc(Cl)cc2)c1C(=O)O)c1ccc2scnc2c1` [Q], the half-inhibitory concentration (IC50) in experiment [1] is not above 0.5 µM.

As to `O=C(Nc1scc(-c2ccc(Br)cc2)c1C(=O)O)OCc1ccccc1` [S], the IC50 in experiment [1] is 1 to 10 µM.

`O=C(Nc1scc(-c2ccc(Cl)cc2)c1C(=O)O)/C(F)=C/c1ccccc1Cl` [U]: the IC50 in experiment [1] fell in the range of 1 to 10 µM.

Turning to `COc1cc(C)c(-c2csc(NC(=O)c3cc4ccccc4o3)c2C(=O)O)c(C)c1` [N], the IC50 (in experiment [1]; with RBL-2H3 cells) was not above 0.5 µM each time.

The record behind these values is patent publication US8394848B2, “Compounds that modulate intracellular calcium” (Calcimedica, Inc., priority 2008, dated 2013).
